In ChEMBL document CHEMBL6134809 (Eur J Med Chem, 2025):
Values after ≈ are worked out from the molar mass of the structure shown. Active and inactive are the calls of the source. The calls are words filed in the database; no cut-off is given here.

Columns and labels:
Pseudomonas aeruginosa [1] = experiment: Antibacterial activity against Pseudomonas aeruginosa 1167 assessed as bacterial growth inhibition by CLSI based broth microdilution method; type: functional
Pseudomonas aeruginosa [2] = experiment: Antibiofilm activity against Pseudomonas aeruginosa PAO1 assessed as […] biofilm biomass at 1/2 times MIC measured for 24 hrs by crystal violet staining; type: functional
Pseudomonas aeruginosa [3] = experiment: Potency index, ratio of ciprofloxacin MIC to test compound MIC for antibacterial activity against Pseudomonas aeruginosa PAO1 assessed as bacterial growth inhibition by CLSI based broth microdilution method; type: functional
Pseudomonas aeruginosa [4] = experiment: Antibiofilm activity against Pseudomonas aeruginosa PAO1 measured for 24 hrs by crystal violet staining; type: functional
Staphylococcus aureus [5] = experiment: Antibacterial activity against Staphylococcus aureus ATCC 25923 assessed as bacterial growth inhibition by CLSI based broth microdilution method; type: functional
Pseudomonas aeruginosa [6] = experiment: Antibiofilm activity against Pseudomonas aeruginosa PAO1 assessed as reduction in biofilm formation at 1/2 times MIC measured for 24 hrs in presence of 10 uM of FeCl3 by crystal violet staining; type: functional; design: scale not given: the % may be the effect or the level left
Pseudomonas aeruginosa [7] = experiment: Antibacterial activity against Pseudomonas aeruginosa 1121 assessed as bacterial growth inhibition by CLSI based broth microdilution method; type: functional
Pseudomonas aeruginosa [8] = experiment: Antibiofilm activity against Pseudomonas aeruginosa assessed as biofilm eradication at 4 times MIC measured after 24 hrs by crystal violet staining based analysis; type: functional
[9] = Toxicity in Caenorhabditis elegans infected with Pseudomonas aeruginosa PAO1 assessed as nematode survival at MIC incubated at 48 hrs relative to control
Pseudomonas aeruginosa [10] = experiment: Antibacterial activity against Pseudomonas aeruginosa FB assessed as bacterial growth inhibition by CLSI based broth microdilution method; type: functional
Pseudomonas aeruginosa [11] = experiment: Antivirulence activity against Pseudomonas aeruginosa PAO1 assessed as reduction in pyocyanin level incubated for 24 hrs by absorbance based assay; type: functional, organism-based
Pseudomonas aeruginosa [12] = experiment: Antibiofilm activity against Pseudomonas aeruginosa PAO1 assessed as reduction in biofilm formation at 1/4 times MIC measured for 24 hrs in presence of 40 uM of FeCl3 by crystal violet staining; type: functional; design: scale not given: the % may be the effect or the level left
Pseudomonas aeruginosa [13] = experiment: Antibiofilm activity against Pseudomonas aeruginosa assessed as reduction in biofilm eradication at 1/4 times MIC measured after 24 hrs by crystal violet staining based analysis; type: functional, organism-based
Pseudomonas aeruginosa [14] = experiment: Selectivity ratio of MIC for antibacterial activity against Pseudomonas aeruginosa PAO1 overexpressing fpvA mutant up to 8 times MIC to MIC for antibacterial activity against Pseudomonas aeruginosa PAO1 up to 8 times MIC; type: functional
Pseudomonas aeruginosa [15] = experiment: Antibiofilm activity against Pseudomonas aeruginosa PAO1 assessed as reduction in biofilm formation at MIC measured for 24 hrs in presence of 10 uM of FeCl3 by crystal violet staining; type: functional; design: scale not given: the % may be the effect or the level left
Pseudomonas aeruginosa [16] = experiment: Antivirulence activity against Pseudomonas aeruginosa PAO1 assessed as reduction in rhamnolipid level at 4.27 uM incubated for 24 hrs by absorbance based assay relative to control; type: functional; design: scale not given: the % may be the effect or the level left
Pseudomonas aeruginosa [17] = experiment: Antibacterial activity against wild type Pseudomonas aeruginosa PAO1 up to 8 times MIC; type: functional, organism-based
Pseudomonas aeruginosa [18] = experiment: Antivirulence activity against Pseudomonas aeruginosa PAO1 assessed as reduction in rhamnolipid level incubated for 24 hrs by absorbance based assay; type: functional, organism-based
A549 = experiment: Cytotoxicity against human A549 cells assessed as reduction in cell viability up to 100 uM incubated for 16 hrs by MTT assay; type: toxicity, cell-based; details: a549, 16 h
Pseudomonas aeruginosa [19] = experiment: Antibiofilm activity against Pseudomonas aeruginosa PAO1 assessed as […] biofilm biomass at 1/4 times MIC measured for 24 hrs by crystal violet staining; type: functional
Pseudomonas aeruginosa [20] = experiment: Inhibition of swarming motility in Pseudomonas aeruginosa PAO1 at 4.27 uM incubated for 16 hrs relative to control; type: functional
Pseudomonas aeruginosa [21] = experiment: Antibiofilm activity against Pseudomonas aeruginosa PAO1 assessed as reduction in biofilm formation at MIC measured for 24 hrs in presence of 40 uM of FeCl3 by crystal violet staining; type: functional; design: scale not given: the % may be the effect or the level left
[22] = Toxicity in Caenorhabditis elegans infected with Pseudomonas aeruginosa PAO1 assessed as nematode survival at MIC incubated at 12 hrs
Pseudomonas aeruginosa [23] = experiment: Antibacterial activity against wild type Pseudomonas aeruginosa PAO1 […] delta pvdS up to 8 times MIC; type: functional, organism-based
Pseudomonas aeruginosa [24] = experiment: Potency index, ratio of ciprofloxacin MIC to test compound MIC for antibiofilm activity against Pseudomonas aeruginosa PAO1 assessed as […] biofilm biomass at 1/2 times MIC measured for 24 hrs by crystal violet staining; type: functional
Pseudomonas aeruginosa [25] = experiment: Inhibition of swimming motility in Pseudomonas aeruginosa PAO1 at 4.27 uM incubated for 16 hrs relative to control; type: functional
Pseudomonas aeruginosa [26] = experiment: Antibiofilm activity against Pseudomonas aeruginosa PAO1 assessed as […] biofilm biomass at MIC measured for 24 hrs by crystal violet staining; type: functional
Pseudomonas aeruginosa [27] = experiment: Antivirulence activity against Pseudomonas aeruginosa PAO1 assessed as reduction in pyocyanin level in flask incubated for 24 hrs by absorbance based assay relative to control; type: functional, organism-based
HEK293 [28] = experiment: Cytotoxicity against HEK293 cells assessed as reduction in cell viability at 100 uM incubated for 16 hrs by MTT assay; type: toxicity, cell-based; details: human, hek293, 16 h
[29] = Toxicity in Caenorhabditis elegans infected with Pseudomonas aeruginosa PAO1 assessed as nematode survival at MIC incubated at 24 hrs relative to control
Pseudomonas aeruginosa [30] = experiment: Potency index, ratio of ciprofloxacin MIC to test compound MIC for antibiofilm activity against Pseudomonas aeruginosa PAO1 measured for 24 hrs by crystal violet staining; type: functional
Staphylococcus aureus [31] = experiment: Antibacterial activity against methicillin-resistant Staphylococcus aureus ATCC 43300 assessed as bacterial growth inhibition by CLSI based broth microdilution method; type: functional
Pseudomonas aeruginosa [32] = experiment: Inhibition of twitching motility in Pseudomonas aeruginosa PAO1 incubated for 16 hrs; type: functional, organism-based; details: dose 4.27 µM
Pseudomonas aeruginosa [33] = experiment: Inhibition of twitching motility in Pseudomonas aeruginosa PAO1 at 4.27 uM incubated for 16 hrs relative to control; type: functional
Pseudomonas aeruginosa [34] = experiment: Antivirulence activity against Pseudomonas aeruginosa PAO1 assessed as reduction in pyocyanin level at 4.27 uM incubated for 24 hrs by absorbance based assay relative to control; type: functional; design: scale not given: the % may be the effect or the level left
Pseudomonas aeruginosa [35] = experiment: Antibacterial activity against Pseudomonas aeruginosa 1129 assessed as bacterial growth inhibition by CLSI based broth microdilution method; type: functional
Pseudomonas aeruginosa [36] = experiment: Antibiofilm activity against Pseudomonas aeruginosa PAO1 assessed as reduction in biofilm formation at 1/2 times MIC measured for 24 hrs in presence of 40 uM of FeCl3 by crystal violet staining; type: functional; design: scale not given: the % may be the effect or the level left
Pseudomonas aeruginosa [37] = experiment: Antibacterial activity against Pseudomonas aeruginosa PAO1 assessed as bacterial growth inhibition by CLSI based broth microdilution method; type: functional
Staphylococcus aureus [38] = experiment: Antibacterial activity against methicillin-resistant Staphylococcus aureus ATCC 513045 assessed as bacterial growth inhibition by CLSI based broth microdilution method; type: functional
Pseudomonas aeruginosa [39] = experiment: Antibiofilm activity against Pseudomonas aeruginosa PAO1 assessed as reduction in biofilm formation at 1/4 times MIC measured for 24 hrs in presence of 10 uM of FeCl3 by crystal violet staining; type: functional; design: scale not given: the % may be the effect or the level left
Staphylococcus aureus [40] = experiment: Antibacterial activity against methicillin-resistant Staphylococcus aureus ATCC 515992 assessed as bacterial growth inhibition by CLSI based broth microdilution method; type: functional
Pseudomonas aeruginosa [41] = experiment: Antibacterial activity against Pseudomonas aeruginosa PAO1 overexpressing fpvA mutant up to 8 times MIC; type: functional, organism-based
HEK293 [42] = experiment: Cytotoxicity against HEK293 cells assessed as reduction in cell viability at 100 uM incubated for 16 hrs by MTT assay relative to control; type: toxicity, cell-based; details: human, hek293, 16 h

Cn1cc(O)c(=O)cc1COC(=O)c1cn(C2CC2)c2cc(N3CCNCC3)c(F)cc2c1=O
MIC (Pseudomonas aeruginosa [1]): 2.13 µM (≈ 0.998 µg/mL) | Activity (Pseudomonas aeruginosa [2]): 38.3% | Ratio (Pseudomonas aeruginosa [3]): 3 | MIC (Pseudomonas aeruginosa [4]): 8.54 µM (≈ 4 µg/mL) | MIC (Staphylococcus aureus [5]): 4.27 µM (≈ 2 µg/mL) | Activity (Pseudomonas aeruginosa [6]): 38.3% | MIC (Pseudomonas aeruginosa [7]): 2.13 µM (≈ 0.998 µg/mL) | Activity (Pseudomonas aeruginosa [8]): 75.7% | survival at 48 h [9]: 50% | MIC (Pseudomonas aeruginosa [10]): 2.13 µM (≈ 0.998 µg/mL) | Activity (Pseudomonas aeruginosa [11]): Active | Activity (Pseudomonas aeruginosa [12]): 197.5% | Activity (Pseudomonas aeruginosa [13]): Active | Ratio (Pseudomonas aeruginosa [14]): 2 | Activity (Pseudomonas aeruginosa [15]): 52.8% | Activity (Pseudomonas aeruginosa [16]): ~20% | Activity (Pseudomonas aeruginosa [17]): inactive | Activity (Pseudomonas aeruginosa [18]): Active | Activity (A549): Non-toxic | Activity (Pseudomonas aeruginosa [19]): 42.4% | inhibition at 4.27 µM (Pseudomonas aeruginosa [20]): 53.7% | Activity (Pseudomonas aeruginosa [21]): 179.6% | Activity [22]: Non-toxic | Activity (Pseudomonas aeruginosa [23]): inactive | Ratio (Pseudomonas aeruginosa [24]): 3 | inhibition at 4.27 µM (Pseudomonas aeruginosa [25]): 64.9% | Activity (Pseudomonas aeruginosa [26]): 52.8% | Activity (Pseudomonas aeruginosa [27]): Active | Activity (HEK293 [28]): Non-toxic | Activity [29]: Toxic | Ratio (Pseudomonas aeruginosa [30]): 8 | MIC (Staphylococcus aureus [31]): 2.13 µM (≈ 0.998 µg/mL) | inhibition (Pseudomonas aeruginosa [32]): Dose-dependent-effect | inhibition at 4.27 µM (Pseudomonas aeruginosa [33]): 44.6% | Activity (Pseudomonas aeruginosa [34]): ~20% | MIC (Pseudomonas aeruginosa [35]): 4.27 µM (≈ 2 µg/mL) | Activity (Pseudomonas aeruginosa [36]): 204.8% | MIC (Pseudomonas aeruginosa [37]): 1.07 µM (≈ 0.501 µg/mL) | MIC (Staphylococcus aureus [38]): 4.27 µM (≈ 2 µg/mL) | Activity (Pseudomonas aeruginosa [39]): 42.4% | MIC (Staphylococcus aureus [40]): > 200 µM

Cn1cc(O)c(=O)cc1CNC(=O)c1cn(C2CC2)c2cc(N3CCNCC3)c(F)cc2c1=O
MIC (Pseudomonas aeruginosa [1]): 8.31 µM (≈ 3.88 µg/mL) | Activity (Pseudomonas aeruginosa [2]): 82.4% | Ratio (Pseudomonas aeruginosa [3]): 3 | MIC (Pseudomonas aeruginosa [4]): 68.5 µM (≈ 32 µg/mL) | MIC (Staphylococcus aureus [5]): 16.6 µM (≈ 7.77 µg/mL) | MIC (Pseudomonas aeruginosa [7]): 16.6 µM (≈ 7.77 µg/mL) | MIC (Pseudomonas aeruginosa [10]): 8.31 µM (≈ 3.88 µg/mL) | Activity (Pseudomonas aeruginosa [19]): 88.5% | Activity (Pseudomonas aeruginosa [26]): 71.6% | MIC (Staphylococcus aureus [31]): 16.6 µM (≈ 7.77 µg/mL) | MIC (Pseudomonas aeruginosa [35]): 16.6 µM (≈ 7.77 µg/mL) | MIC (Pseudomonas aeruginosa [37]): 8.31 µM (≈ 3.88 µg/mL) | MIC (Staphylococcus aureus [38]): 33.2 µM (≈ 15.5 µg/mL) | MIC (Staphylococcus aureus [40]): > 200 µM

Cc1cc(=O)c(O)c(CNC(=O)c2cn(C3CC3)c3cc(N4CCNCC4)c(F)cc3c2=O)n1C
MIC (Pseudomonas aeruginosa [1]): 17.1 µM (≈ 8.24 µg/mL) | Activity (Pseudomonas aeruginosa [2]): 78.1% | MIC (Pseudomonas aeruginosa [4]): 66.5 µM (≈ 32 µg/mL) | MIC (Staphylococcus aureus [5]): 34.2 µM (≈ 16.5 µg/mL) | MIC (Pseudomonas aeruginosa [7]): 68.5 µM (≈ 33 µg/mL) | MIC (Pseudomonas aeruginosa [10]): 68.5 µM (≈ 33 µg/mL) | Activity (Pseudomonas aeruginosa [19]): 93.6% | Activity (Pseudomonas aeruginosa [26]): 75.3% | MIC (Staphylococcus aureus [31]): 34.2 µM (≈ 16.5 µg/mL) | MIC (Pseudomonas aeruginosa [35]): 34.2 µM (≈ 16.5 µg/mL) | MIC (Pseudomonas aeruginosa [37]): 17.1 µM (≈ 8.24 µg/mL) | MIC (Staphylococcus aureus [38]): 68.5 µM (≈ 33 µg/mL) | MIC (Staphylococcus aureus [40]): > 200 µM

O=C(O)c1cn(C2CC2)c2cc(N3CCNCC3)c(F)cc2c1=O [CIPROFLOXACIN]
Activity (Pseudomonas aeruginosa [41]): Active | Activity (HEK293 [42]): 40% | Activity (Pseudomonas aeruginosa [8]): 42.6% | Activity (Pseudomonas aeruginosa [12]): 89.5%

COC(=O)c1cn(C2CC2)c2cc(N3CCNCC3)c(F)cc2c1=O
MIC (Pseudomonas aeruginosa [1]): 185 µM (≈ 64 µg/mL) | Activity (Pseudomonas aeruginosa [2]): 145.2% | MIC (Pseudomonas aeruginosa [4]): 185 µM (≈ 64 µg/mL) | MIC (Staphylococcus aureus [5]): > 200 µM | MIC (Pseudomonas aeruginosa [7]): > 200 µM | MIC (Pseudomonas aeruginosa [10]): > 200 µM | Activity (Pseudomonas aeruginosa [19]): 122.4% | inhibition (Pseudomonas aeruginosa [20]): inactive | inhibition (Pseudomonas aeruginosa [25]): inactive | Activity (Pseudomonas aeruginosa [26]): 109.7% | MIC (Staphylococcus aureus [31]): > 200 µM | inhibition (Pseudomonas aeruginosa [33]): inactive | MIC (Pseudomonas aeruginosa [35]): > 200 µM | MIC (Pseudomonas aeruginosa [37]): 185 µM (≈ 64 µg/mL) | MIC (Staphylococcus aureus [38]): > 200 µM | MIC (Staphylococcus aureus [40]): > 200 µM
